Source: ChEMBL document CHEMBL1150498, “Novel derivatives of pseudomonic acid” (Bioorg Med Chem Lett, 1997)
≈ marks a conversion by molar mass, not a printed value.

These compounds were tested on Staphylococcus aureus (assay: Compound was evaluated for inhibitory activity against Staphylococcus aureus ATCC 6538P).
Assay type: functional

| Structure (SMILES) | MIC [µg/mL] |
| --- | --- |
| COC(=O)CCCCCCCCOC(=O)/C=C/C[C@@H]1OC[C@H](NS(=O)(=O)CCCCl)[C@@H](O)[C@H]1O | 50 (≈ 94.7 µM) |
| CCCS(=O)(=O)N[C@H]1CO[C@@H](C/C=C/C(=O)OCCCCCCCCC(=O)OC)[C@H](O)[C@@H]1O | > 100 |
| CCCCS(=O)(=O)N[C@H]1CO[C@@H](C/C=C/C(=O)OCCCCCCCCC(=O)OC)[C@H](O)[C@@H]1O | > 100 |
| COC(=O)CCCCCCCCOC(=O)/C=C/C[C@@H]1OC[C@H](NS(C)(=O)=O)[C@@H](O)[C@H]1O | > 100 |
| COC(=O)CCCCCCCCOC(=O)/C=C/C[C@@H]1OC[C@H](NS(=O)(=O)c2cccc(Cl)c2)[C@@H](O)[C@H]1O | 25 (≈ 44.5 µM) |
